{
  "source": "patent US20160324796A1",
  "about": "“COMPOSITIONS AND THEIR USE TO TREAT COMPLICATIONS OF ANEURYSMAL SUBARACHNOID HEMMORRHAGE” (Edge Therapeutics, Inc., priority 2007, published 2016)",
  "key": {"[1]": {"test": "Preclinical Study 2: CSF (cisterna magna) concentration of nimodipine", "assay_type": "in vivo, mongrel dogs", "conditions": "oral nimodipine 0.86 mg/kg six times per day", "source_text": "(§1) On days 8 and 15, the animals were anesthetized, and angiography, removal of CSF from the cistern magna and collection of plasma, were repeated. Other endpoints included daily blood pressure measurements, behavior assessment, and brain and spinal cord pathology. Animals were euthanized under anesthesia on day 28 or 49, perfused with PBS and then neutral buffered formalin, and the brains subjected to histological analysis.\nValues are means±standard error of the mean (n=8 per measurement)."}, "[2]": {"conditions": "female, mongrel, dog, in vivo", "source_text": "as §1\nThe animals are grouped according to whether the animals died or were euthanized at an unscheduled time (DOS) or underwent scheduled necropsy (SNC)."}},
  "note": "Where two headings read alike, the source gives them in different places.",
  "data": [
    {"smiles": "COCCOC(=O)C1=C(C)NC(C)=C(C(=O)OC(C)C)C1c1cccc([N+](=O)[O-])c1", "note": "(stereo not drawn) [nimodipine, Isopropyl 2-methoxyethyl 1,4-dihydro-2,6-dimethyl-4-(m-nitrophenyl)-3,5-pyridinedicarboxylate]", "values": [
      {"measurement": "CSF nimodipine concentrations", "setting": "[1]", "result": "low or undetectable"},
      {"measurement": "Brain discoloration, red, # of animals", "setting": "[2]; 28 d", "result": 0},
      {"measurement": "Brain focus/foci, red, # of animals", "setting": "[2]; 28 d", "result": 0},
      {"measurement": "Brain nodule, # of animals", "setting": "[2]; 28 d", "result": 0},
      {"measurement": "Brain: chromatolysis, central, neuronal; minimal", "setting": "[2]; 28 d", "result": 0},
      {"measurement": "Brain: degeneration, axonal/myelin; mild", "setting": "[2]; 28 d", "result": 0},
      {"measurement": "Brain: degeneration, axonal/myelin; minimal", "setting": "[2]; 28 d", "result": 0},
      {"measurement": "Brain: degeneration; mild", "setting": "[2]; 28 d", "result": 0},
      {"measurement": "Brain: degeneration; minimal", "setting": "[2]; 28 d", "result": 0},
      {"measurement": "Brain: fibroplasia; mild", "setting": "[2]; 28 d", "result": 0},
      {"measurement": "Brain: fibroplasia; minimal", "setting": "[2]; 28 d", "result": 0},
      {"measurement": "Brain: granulation tissue; mild", "setting": "[2]; 28 d", "result": 0},
      {"measurement": "Brain: granulation tissue; minimal", "setting": "[2]; 28 d", "result": 0},
      {"measurement": "Brain: hemorrhage; minimal", "setting": "[2]; 28 d", "result": 0},
      {"measurement": "Brain: hemorrhage; moderate", "setting": "[2]; 28 d", "result": 0},
      {"measurement": "Brain: inflammation, granulomous; minimal", "setting": "[2]; 28 d", "result": 0},
      {"measurement": "Brain: inflammation, meningeal; minimal", "setting": "[2]; 28 d", "result": 0},
      {"measurement": "Brain: inflammation, subacute/chronic; mild", "setting": "[2]; 28 d", "result": 0},
      {"measurement": "Brain: macrophages, pigmented; mild", "setting": "[2]; 28 d", "result": 0},
      {"measurement": "Brain: macrophages, pigmented; minimal", "setting": "[2]; 28 d", "result": 0},
      {"measurement": "Brain: mineralization focal; minimal", "setting": "[2]; 28 d", "result": 0},
      {"measurement": "Brain: neovascularization; minimal", "setting": "[2]; 28 d", "result": 0},
      {"measurement": "Brain: within normal limits", "setting": "[2]; 28 d", "result": 0},
      {"measurement": "Spinal Cord, Cervical: degeneration, axonal/myelin; minimal", "setting": "[2]; 28 d", "result": 0},
      {"measurement": "Spinal Cord, Cervical: fibroplasia; minimal", "setting": "[2]; 28 d", "result": 0},
      {"measurement": "Spinal Cord, Cervical: fibroplasia; moderate", "setting": "[2]; 28 d", "result": 0},
      {"measurement": "Spinal Cord, Cervical: inflammation, granulomatous; minimal", "setting": "[2]; 28 d", "result": 0},
      {"measurement": "Spinal Cord, Cervical: inflammation, subacute/chronic; mild", "setting": "[2]; 28 d", "result": 0},
      {"measurement": "Spinal Cord, Cervical: macrophages, pigmented; minimal", "setting": "[2]; 28 d", "result": 0},
      {"measurement": "Spinal Cord, Cervical: within normal limits", "setting": "[2]; 28 d", "result": 0},
      {"measurement": "Spinal Cord, Lumbar: fibroplasia; minimal", "setting": "[2]; 28 d", "result": 0},
      {"measurement": "Spinal Cord, Lumbar: hemorrhage; minimal", "setting": "[2]; 28 d", "result": 0},
      {"measurement": "Spinal Cord, Lumbar: mineralization; minimal", "setting": "[2]; 28 d", "result": 0},
      {"measurement": "Spinal Cord, Lumbar: within normal limits", "setting": "[2]; 28 d", "result": 0},
      {"measurement": "Spinal Cord, Thoracic: fibroplasia; minimal", "setting": "[2]; 28 d", "result": 0},
      {"measurement": "Spinal Cord, Thoracic: hemorrhage; minimal", "setting": "[2]; 28 d", "result": 0},
      {"measurement": "Spinal Cord, Thoracic: inflammation, granulomatous; minimal", "setting": "[2]; 28 d", "result": 0},
      {"measurement": "Spinal Cord, Thoracic: inflammation, subacute/chronic; minimal", "setting": "[2]; 28 d", "result": 0},
      {"measurement": "Spinal Cord, Thoracic: macrophages, pigmented; minimal", "setting": "[2]; 28 d", "result": 0},
      {"measurement": "Spinal Cord, Thoracic: within normal limits", "setting": "[2]; 28 d", "result": 0},
      {"measurement": "Brain discoloration, red, # of animals", "setting": "[2]; 49 d", "result": 0},
      {"measurement": "Brain focus/foci, red, # of animals", "setting": "[2]; 49 d", "result": 0},
      {"measurement": "Brain nodule, # of animals", "setting": "[2]; 49 d", "result": 0},
      {"measurement": "Brain: chromatolysis, central, neuronal; minimal", "setting": "[2]; 49 d", "result": 0},
      {"measurement": "Brain: degeneration, axonal/myelin; mild", "setting": "[2]; 49 d", "result": 0},
      {"measurement": "Brain: degeneration, axonal/myelin; minimal", "setting": "[2]; 49 d", "result": 0},
      {"measurement": "Brain: degeneration; mild", "setting": "[2]; 49 d", "result": 0},
      {"measurement": "Brain: fibroplasia; mild", "setting": "[2]; 49 d", "result": 0},
      {"measurement": "Brain: fibroplasia; minimal", "setting": "[2]; 49 d", "result": 0},
      {"measurement": "Brain: granulation tissue; mild", "setting": "[2]; 49 d", "result": 0},
      {"measurement": "Brain: granulation tissue; minimal", "setting": "[2]; 49 d", "result": 0},
      {"measurement": "Brain: hemorrhage; mild", "setting": "[2]; 49 d", "result": 0},
      {"measurement": "Brain: hemorrhage; minimal", "setting": "[2]; 49 d", "result": 0},
      {"measurement": "Brain: hemorrhage; moderate", "setting": "[2]; 49 d", "result": 0},
      {"measurement": "Brain: infiltration, lymphoid, perivascular; minimal", "setting": "[2]; 49 d", "result": 0},
      {"measurement": "Brain: inflammation, granulomous; mild", "setting": "[2]; 49 d", "result": 0},
      {"measurement": "Brain: inflammation, granulomous; minimal", "setting": "[2]; 49 d", "result": 0},
      {"measurement": "Brain: inflammation, meningeal; minimal", "setting": "[2]; 49 d", "result": 0},
      {"measurement": "Brain: inflammation, subacute/chronic; mild", "setting": "[2]; 49 d", "result": 0},
      {"measurement": "Brain: macrophages, pigmented; mild", "setting": "[2]; 49 d", "result": 0},
      {"measurement": "Brain: macrophages, pigmented; minimal", "setting": "[2]; 49 d", "result": 0},
      {"measurement": "Brain: mineralization focal; minimal", "setting": "[2]; 49 d", "result": 0},
      {"measurement": "Brain: neovascularization; minimal", "setting": "[2]; 49 d", "result": 0},
      {"measurement": "Brain: within normal limits", "setting": "[2]; 49 d", "result": 0},
      {"measurement": "Spinal Cord, Cervical: degeneration, axonal/myelin; minimal", "setting": "[2]; 49 d", "result": 0},
      {"measurement": "Spinal Cord, Cervical: fibroplasia; mild", "setting": "[2]; 49 d", "result": 0},
      {"measurement": "Spinal Cord, Cervical: fibroplasia; minimal", "setting": "[2]; 49 d", "result": 0},
      {"measurement": "Spinal Cord, Cervical: fibroplasia; moderate", "setting": "[2]; 49 d", "result": 0},
      {"measurement": "Spinal Cord, Cervical: hemorrhage; minimal", "setting": "[2]; 49 d", "result": 0},
      {"measurement": "Spinal Cord, Cervical: inflammation, granulomatous; minimal", "setting": "[2]; 49 d", "result": 0},
      {"measurement": "Spinal Cord, Cervical: inflammation, granulomatous; moderate", "setting": "[2]; 49 d", "result": 0},
      {"measurement": "Spinal Cord, Cervical: inflammation, subacute/chronic; mild", "setting": "[2]; 49 d", "result": 0},
      {"measurement": "Spinal Cord, Cervical: macrophages, pigmented; minimal", "setting": "[2]; 49 d", "result": 0},
      {"measurement": "Spinal Cord, Cervical: within normal limits", "setting": "[2]; 49 d", "result": 0},
      {"measurement": "Spinal Cord, Lumbar: fibroplasia; minimal", "setting": "[2]; 49 d", "result": 0},
      {"measurement": "Spinal Cord, Lumbar: hemorrhage; minimal", "setting": "[2]; 49 d", "result": 0},
      {"measurement": "Spinal Cord, Lumbar: mineralization; minimal", "setting": "[2]; 49 d", "result": 0},
      {"measurement": "Spinal Cord, Lumbar: within normal limits", "setting": "[2]; 49 d", "result": 0},
      {"measurement": "Spinal Cord, Thoracic: fibroplasia; minimal", "setting": "[2]; 49 d", "result": 0},
      {"measurement": "Spinal Cord, Thoracic: hemorrhage; minimal", "setting": "[2]; 49 d", "result": 0},
      {"measurement": "Spinal Cord, Thoracic: inflammation, granulomatous; minimal", "setting": "[2]; 49 d", "result": 0},
      {"measurement": "Spinal Cord, Thoracic: inflammation, subacute/chronic; minimal", "setting": "[2]; 49 d", "result": 0},
      {"measurement": "Spinal Cord, Thoracic: macrophages, pigmented; minimal", "setting": "[2]; 49 d", "result": 0},
      {"measurement": "Spinal Cord, Thoracic: within normal limits", "setting": "[2]; 49 d", "result": 0}
    ]}
  ]
}
